Data from the supplement of paper PMC10307832.

Legend:
Experiment in all cases: relative viability (nuclei count vs DMSO), 5 days (fraction); higher = more cells survive
[1] = compound: COC1=CC=C(C=C1)CN2C=CC3=C2C=C(C=C3)C(=O)NO + CCNC(=O)c1noc(-c2cc(C(C)C)c(O)cc2O)c1-c1ccc(CN2CCOCC2)cc1 [Luminespib] (partner 0.01 µM)
Procedure, shortened: (§1)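 Lung cancer cell lines were pin-tool dosed in 1536-well plates on the day after seeding, with either a lone drug or a fixed anchor-drug dose plus five library-drug doses (not always all listed) in √10 steps. Nuclei were counted on 4× images after 5 days. Relative viability is the ratio of treated-well to vehicle-well nuclei counts, with each value a median of duplicate plates.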

[2] = compound: COC1=CC=C(C=C1)CN2C=CC3=C2C=C(C=C3)C(=O)NO + NC(=O)Nc1cc(-c2cccc(F)c2)sc1C(=O)N[C@H]1CCCNC1 [AZD7762] (partner 0.2 µM)
Procedure, shortened: as §1

[3] = compound: COC1=CC=C(C=C1)CN2C=CC3=C2C=C(C=C3)C(=O)NO + CC(=O)c1c(C)c2cnc(Nc3ccc(N4CCNCC4)cn3)nc2n(C2CCCC2)c1=O [Palbociclib] (partner 0.5 µM)
Procedure, shortened: as §1

Veliparib + Palbociclib = compound: C[C@]1(c2nc3c(C(N)=O)cccc3[nH]2)CCCN1 [Veliparib] + CC(=O)c1c(C)c2cnc(Nc3ccc(N4CCNCC4)cn3)nc2n(C2CCCC2)c1=O [Palbociclib] (partner 0.5 µM)
Procedure, shortened: as §1

Cell Line | relative viability ([1]; first compound 0.08 µM) | relative viability ([1]; first compound 0.253 µM) | relative viability ([1]; first compound 0.8 µM) | relative viability ([1]; first compound 2.53 µM) | relative viability ([1]; first compound 8 µM) | relative viability ([2]; first compound 0.08 µM) | relative viability ([2]; first compound 0.253 µM) | relative viability ([2]; first compound 0.8 µM) | relative viability ([2]; first compound 2.53 µM) | relative viability ([2]; first compound 8 µM) | relative viability ([3]; first compound 0.08 µM) | relative viability ([3]; first compound 0.253 µM) | relative viability ([3]; first compound 0.8 µM) | relative viability ([3]; first compound 2.53 µM) | relative viability ([3]; first compound 8 µM) | relative viability (Veliparib + Palbociclib; first compound 0.02 µM) | relative viability (Veliparib + Palbociclib; first compound 0.06325 µM) | relative viability (Veliparib + Palbociclib; first compound 0.2 µM) | relative viability (Veliparib + Palbociclib; first compound 0.6325 µM) | relative viability (Veliparib + Palbociclib; first compound 2 µM)
RERF-LC-KJ | 1.24 | 1.35 | 1.17 | 1.26 | 1.08 | 0.888 | 0.773 | 0.918 | 0.948 | 0.967 | 1.05 | 1.1 | 1.07 | 1.09 | 1.05 | 1.07 | 1.03 | 1.06 | 1.09 | 1.13
NCI-H647 | 0.23 | 0.216 | 0.226 | 0.185 | 0.111 | – | 0.437 | 0.495 | 0.361 | 0.369 | 0.441 | 0.364 | 0.379 | 0.494 | 0.438 | 0.392 | 0.325 | 0.425 | 0.423 | 0.469
NCI-H2342 | 0.697 | 0.629 | 0.762 | 0.786 | 0.738 | 0.475 | 0.44 | 0.468 | 0.379 | 0.389 | 0.467 | 0.586 | 0.52 | 0.538 | 0.559 | 0.482 | 0.581 | 0.503 | 0.522 | 0.491
ChaGo-K-1 | – | 0.69 | 0.494 | 0.601 | 0.409 | – | 0.861 | 0.881 | 0.766 | 0.762 | – | 0.914 | 0.928 | 0.904 | 0.874 | 0.712 | 0.951 | 1.02 | 0.892 | 0.944
NCI-H358 | 0.25 | 0.428 | 0.374 | 0.434 | 0.213 | – | 0.54 | 0.443 | 0.557 | 0.354 | – | 0.125 | 0.115 | 0.14 | 0.191 | 0.117 | 0.136 | 0.153 | 0.137 | 0.119
LK-2 | – | 0.21 | 0.168 | 0.194 | 0.157 | – | 0.439 | 0.45 | 0.352 | 0.375 | – | 0.821 | 0.832 | 0.582 | 0.699 | 0.662 | 0.608 | 0.707 | 0.616 | 0.779
NCI-H460 | 0.0291 | 0.0369 | 0.0487 | 0.0276 | 0.0281 | 0.536 | 0.485 | 0.588 | 0.614 | 0.515 | 0.201 | 0.173 | 0.0964 | 0.186 | 0.108 | 0.147 | 0.092 | 0.11 | 0.121 | 0.131
LU99A | – | 0.227 | 0.288 | 0.29 | 0.277 | – | 0.392 | 0.384 | 0.276 | 0.208 | – | 0.406 | 0.424 | 0.416 | 0.352 | 0.495 | 0.399 | 0.418 | 0.381 | 0.451
PC-3 [JPC-3] | 0.797 | 0.746 | 0.655 | 0.729 | 0.753 | 0.799 | – | 0.965 | 0.869 | 0.652 | 0.562 | – | 0.559 | 0.55 | 0.535 | 0.54 | – | 0.493 | 0.566 | 0.543
A-427 | – | 1.03 | 0.956 | 0.835 | 0.847 | 0.544 | – | 0.671 | 0.696 | 0.476 | 0.291 | – | 0.538 | 0.494 | 0.501 | 0.507 | 0.51 | 0.529 | 0.5 | 0.593
LCLC-97TM1 | 0.412 | 0.797 | 0.801 | 0.803 | 0.724 | – | 0.267 | 0.205 | 0.162 | 0.188 | – | 0.226 | 0.23 | 0.223 | 0.229 | 0.219 | 0.194 | 0.233 | 0.23 | 0.249
NCI-H2170 | 0.566 | 0.748 | 0.549 | 0.833 | 0.589 | 0.859 | 0.797 | 0.849 | 0.826 | 0.711 | 0.374 | 0.374 | 0.412 | 0.361 | 0.367 | 0.43 | 0.446 | 0.435 | 0.386 | 0.399
NCI-H2085 | 0.392 | 0.413 | 0.409 | 0.447 | 0.471 | 0.971 | 0.953 | 1.07 | 1 | 0.942 | 0.492 | 0.452 | 0.495 | 0.464 | 0.538 | 0.454 | 0.476 | 0.477 | 0.471 | 0.479
NCI-H1666 | 0.911 | 1.07 | 1.01 | 0.987 | 1.15 | 0.799 | 0.872 | 0.782 | 0.784 | 0.765 | 0.642 | 0.661 | 0.694 | 0.679 | 0.625 | 0.574 | 0.606 | 0.644 | 0.655 | 0.654
201T | 1.05 | 1.13 | 1.07 | 1.05 | 0.987 | 0.561 | 0.676 | 0.528 | 0.642 | 0.586 | 0.338 | 0.368 | 0.371 | 0.358 | 0.365 | 0.352 | 0.353 | 0.364 | 0.356 | 0.373
LXF-289 | – | 0.732 | 0.709 | 0.714 | 0.632 | – | 1.06 | 1.04 | 1.07 | 1.02 | – | 0.588 | 0.609 | 0.607 | 0.581 | 0.577 | 0.574 | 0.554 | 0.601 | 0.649
ABC-1 | – | 0.844 | 0.391 | 0.435 | 0.391 | – | 0.692 | 0.871 | 0.796 | 0.756 | – | 0.768 | 0.713 | 0.77 | 0.615 | – | – | 0.863 | 0.694 | 0.405
NCI-H2087 | 0.131 | 0.165 | 0.193 | 0.208 | 0.132 | 1.31 | 1.24 | 1.5 | 1.17 | 1.25 | 0.261 | 0.226 | 0.259 | 0.28 | 0.164 | 0.183 | 0.222 | 0.249 | 0.264 | 0.216
NCI-H441 | 0.27 | 0.322 | 0.37 | 0.422 | 0.322 | 1.08 | 1.3 | 1.19 | 1.2 | 0.887 | 0.23 | 0.235 | 0.238 | 0.231 | 0.185 | 0.203 | 0.222 | 0.266 | 0.213 | 0.218
NCI-H3122 | 0.0872 | 0.107 | 0.141 | 0.0763 | 0.0869 | 0.977 | 1.02 | 1.04 | 0.999 | 0.819 | 0.196 | 0.173 | 0.204 | 0.167 | 0.194 | 0.166 | 0.147 | 0.207 | 0.179 | 0.192
